Consider 3 molecules from article PMC5909415 (ACS nano, 2015).

Series [1] deals with HSA (Homo sapiens, UniProt P02768). Description: Interaction between avasimibe and HSA. The note with it: avasimibe:HSA molar ratio 16:1, warfarin:HSA 10:1, warfarin fluorescence. In kind it is binding.
In series [2] the test system is PC3. Description: Cell viability assay. The class given is cell-based. The note with it: Homo sapiens, PC-3, 72 h, read-out: IC50 of avasimin (containing avasimibe).
Series [3] is described as follows: Blood bioavailability of avasimibe. In kind it is in vivo, mice. The note with it: nude, mouse, whole blood, po.
Series [4] can be described thus: Tissue distribution of avasimibe in PC3 tumor-bearing mice. In kind it is in vivo. The note with it: oral avasimibe 15 mg/kg, 2 hr.
In series [5] the test system is PC3 tumors. Description: Anti-tumor effect, PC3 tumor xenograft. The note with it: oral avasimibe 15 mg/kg daily by gavage, versus PBS.
The subject of series [6] is cancer and normal cells. Nature of the series: Cell viability assay. In kind it is cell-based, human. The note with it: 72 h.

Each structure is given as a SMILES string.

Chain of HSA (P02768 25-609): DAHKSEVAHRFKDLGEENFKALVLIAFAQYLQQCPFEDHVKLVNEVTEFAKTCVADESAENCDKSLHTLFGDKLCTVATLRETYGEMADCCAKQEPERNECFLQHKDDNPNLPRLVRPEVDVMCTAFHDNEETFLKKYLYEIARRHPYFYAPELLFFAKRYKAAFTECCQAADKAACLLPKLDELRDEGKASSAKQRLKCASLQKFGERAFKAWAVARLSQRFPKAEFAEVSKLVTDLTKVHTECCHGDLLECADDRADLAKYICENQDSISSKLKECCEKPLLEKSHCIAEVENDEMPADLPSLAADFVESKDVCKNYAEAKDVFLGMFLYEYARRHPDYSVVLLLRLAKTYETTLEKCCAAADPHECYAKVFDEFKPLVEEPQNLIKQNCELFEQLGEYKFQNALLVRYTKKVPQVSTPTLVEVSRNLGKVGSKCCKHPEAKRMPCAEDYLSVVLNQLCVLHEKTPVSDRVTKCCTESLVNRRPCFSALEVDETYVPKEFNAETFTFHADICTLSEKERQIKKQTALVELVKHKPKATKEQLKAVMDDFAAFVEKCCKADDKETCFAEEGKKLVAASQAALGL

For orientation: IC50 means the point on the concentration scale where inhibition reaches its midpoint. Broadly, the AUC is the area under the concentration-time curve, a measure of exposure. The low end stands for less exposure, the high end for more exposure. For the molecule `CC(C)c1cc(C(C)C)c(CC(=O)NS(=O)(=O)Oc2c(C(C)C)cccc2C(C)C)c(C(C)C)c1` [avasimibe], the “replacement of warfarin at the primary binding site (site I) of HSA” value in series [1] is reported as “complete replacement of warfarin”. The IC50 in series [2] was 8.5 µM. Also, in series [3] (15 mg/kg), the AUC was 14900 ng·h/mL. The molecule further had an exposure (AUC) in series [3] (100 mg/kg) of 49900 ng·h/mL. Further, in series [4], the “avasimibe in the tumor tissue” value is listed as “not detectable”, the “distribution of avasimibe to liver” value is “most orally administered avasimibe was found in the liver tissue” and the “excretion of avasimibe through feces” value is on record as “considerable amount of avasimibe was excreted through the feces”. The “anti-tumor effect in terms of tumor volume” value in series [5] was “did not exhibit anti-tumor effect”.

In the case of `N.N.[Cl][Pt][Cl]` [cisplatin], the “effect on viability of cancer and normal cells” value in series [6] is reported as “non-selective cytotoxic effects”.

As to `Nc1ccn([C@@H]2O[C@H](CO)[C@@H](O)C2(F)F)c(=O)n1` [gemcitabine], in series [6], the “effect on viability of cancer and normal cells” value was “non-selective cytotoxic effects”.
